Assay: xn = mol fraction of the nth substance listed
Conditions: Liquid, determined from the liquid sample's weight and the volume of sample.

CC [ethane] + N#N
Conditions | mass density [kg/m3]
149.97 K, x2 = 0.0702 | 558.2
169.87 K, x2 = 0.2041 | 544.8
169.91 K, x2 = 0.114 | 537.5
170 K, x2 = 0.036 | 525
209.93 K, x2 = 0.0236 | 479.7
210.04 K, x2 = 0.3352 | 482.6
249.66 K, x2 = 0.0761 | 416.5
249.98 K, x2 = 0.0518 | 414.7
250.03 K, x2 = 0.1483 | 407.9
269.91 K, x2 = 0.1969 | 350.5
269.94 K, x2 = 0.0305 | 378.2
269.97 K, x2 = 0.3581 | 284.6
270 K, x2 = 0.2503 | 332.5
270.01 K, x2 = 0.06 | 376.3

N#N [nitrogen] + C
Conditions | mass density [kg/m3]
129.98 K, x1 = 0.2952 | 648.5
129.99 K, x1 = 0.4716 | 618.7
149.93 K, x1 = 0.5938 | 413.6
149.96 K, x1 = 0.4151 | 527.4
149.97 K, x1 = 0.1389 | 602.8
149.97 K, x1 = 0.3339 | 555.8
150 K, x1 = 0.5608 | 436
150.01 K, x1 = 0.504 | 474.9
159.36 K, x1 = 0.3238 | 492
159.96 K, x1 = 0.4275 | 427.8
159.98 K, x1 = 0.0224 | 577
159.99 K, x1 = 0.2659 | 511
160 K, x1 = 0.4156 | 432.5
169.98 K, x1 = 0.2384 | 436.4
169.99 K, x1 = 0.263 | 420.1
170.01 K, x1 = 0.2279 | 442.9
170.01 K, x1 = 0.3013 | 383.6
179.98 K, x1 = 0.1281 | 390.8
179.98 K, x1 = 0.1898 | 319

Reference: the NIST ThermoML archive (doi:10.1021/je700210n)
